The values that follow come from a melting point compilation (Tetko et al.; mined from patent text by program, amines drawn as free bases though some values may be those of a salt).

For orientation: melting point means the temperature of the solid-liquid transition.

With `Nc1cc(Cl)c([N+](=O)[O-])cc1OC(=O)c1cccc(C(=O)Oc2cc([N+](=O)[O-])c(Cl)cc2N)c1`, the melting point is 129 to 130 °C.

`O=Cc1ccc(F)c(F)c1` yielded a melting point of 95 to 96 °C.

As to `CCCCCNC(=O)[C@@H](Cc1ccc(OCC(=O)O)c(C(=O)O)c1)NC(=O)Cc1ccccc1OC`, the melting point lay in the range of 146 to 148 °C.

In turn, `CCc1ncnc(NC2CCC3(CC2)OCC(c2ccccc2)O3)c1Cl` (configuration not stated) returned a melting point of 105 to 106 °C.

The compound `CCOc1ccc(C(=O)c2c(-c3ccc(OC)cc3)sc3cc(OC)ccc23)cc1` showed a melting point of 124 to 125 °C.

`Cc1cc(C(O)(c2ccc3c(cnn3-c3ccc(F)cc3)c2)C(F)(F)F)cn(C)c1=O` (configuration not stated) displayed a melting point above 200 °C.

`CCCCCCCCCCCCCCCCCC(=O)Oc1ccc2c(c1)C(=O)c1ccc(OC(=O)CCCCCCCCCCCCCCCCC)cc1C2=O` returned a melting point of 129 to 132 °C.

`COc1cccc2c1OCN(CCc1ccc(C)cc1)C2` yielded a melting point of 58 to 63 °C.

Compound `CS(=O)(=O)NCCCn1c(CCCOc2ccccc2)nc2c(N)nc3ccccc3c21` had a melting point of 176 to 178 °C.

Turning to `COCC(=O)[C@H](Cc1ccccc1)NC(=O)[C@H](CC(C)C)NC(=O)OCc1ccccc1`, the melting point lay within 87 to 92 °C.

Turning to `CC1(C)COC1(Cn1cncn1)c1ccc(F)cc1` (configuration not stated), the melting point came out at 110 °C.

Turning to `COc1ccc(-c2cccc(C(=O)O)c2)c2c1OC(C)(C)C2`, the melting point lay within 220 to 225 °C.

In turn, `Cn1nc(-c2ccccc2)nc1-c1ccncc1` showed a melting point of 132 to 134 °C.

In turn, `Clc1cc(Cl)cc(NCNc2cc(Cl)cc(Cl)c2)c1` yielded a melting point of 153 to 156 °C.

The compound `COC(=O)CC1CC(c2cccc(C3(c4ccc(OC(F)F)cc4)N=C(N)N(C)C3=O)c2)C1` (configuration not stated) registered a melting point of 68 to 70 °C.

Compound `O=C(O)c1cccc(N2C(=O)c3ccc(C(=O)O)cc3C2=O)c1` came in with a melting point above 380 °C.

`CCCCCCCCCCOc1ccc2cc(C#CC(C)OC(=O)CC)ccc2c1` (configuration not stated) yielded a melting point of 74 to 75 °C.

`CC(C)(C)OC(=O)N1CCCC[C@@H]1[C@H](CO)c1ccc(Br)cc1` yielded a melting point of 117 to 118 °C.

`Cc1cc(OCc2ccccc2)c(C23CC4CC(CC(C4)C2)C3)cc1Br` returned a melting point of 138 to 139 °C.

`CCCc1nc2c(N)nc3ccccc3c2n1CCOCCCSC` yielded a melting point of 99 to 101 °C.

Compound `CCCOc1ccccc1-c1ccc(C#N)c(=O)[nH]1` gave a melting point of 244 to 247 °C.

Regarding `COc1c(N2CC(N)C2)c(F)cc2c(=O)c(C(=O)O)cn(-c3cc(N)c(F)cc3F)c12`, the melting point is above 290 °C.

`CCOC(=O)c1sc(Nc2ccccc2)c2c1CCc1cn[nH]c1-2` registered a melting point of 202 to 203 °C.

In turn, `CP(C)(=O)COC(=O)c1ccccc1Nc1cccc(C(F)(F)F)c1` returned a melting point of 85 °C.

Turning to `CCN1C(=O)Cc2cc(C(=O)OC)ccc21`, the melting point is 97 to 98 °C.

As for `CCOC(=O)C(S)CC(=O)c1ccc(Oc2ccc(Cl)cc2)cc1` (configuration not stated), the melting point was 75.5 to 76.5 °C.

Turning to `S=C=NCc1cc(-c2ccccc2)no1`, the melting point came out at 66 °C.

`CC(Oc1ccc(Oc2cnc3cc(Cl)ccc3n2)cc1F)C(=O)O` (configuration not stated) showed a melting point of 132 to 138 °C.

As to `COc1cc(Br)ccc1OCc1ccc2ccccc2c1`, the melting point was 108 °C.

`CC(C)(C)c1cccc(C(C)(C)C)c1C(OC(N)=O)S(=O)(=O)NC(c1ccccc1)c1ccccc1` (configuration not stated): the melting point was 175 to 178 °C.

`CC(C)(C)NCCNC(=O)Cn1ncc(-c2ccccc2)c1-c1ccccc1` had a melting point of 115 to 116 °C.

`CN1C(=O)CCC1(O)c1ccc(Cl)c(S(=O)(=O)Cl)c1` (configuration not stated): the melting point was 112 to 114 °C.

With `OCc1cccc2nc(-c3ccccc3)oc12`, the melting point was 131 °C.

With `O=C(O)C=C(Oc1ccc(OC(F)(F)F)cc1)C(=O)O`, the melting point lay in the range of 208 to 210 °C.

Consider `S=C(NCCc1ccccc1Cl)Nc1nc2ccccc2[nH]1`, for which the melting point was 166 to 169 °C.

Consider `Cn1cc(-c2ccccc2)c(=O)c(-c2ccccc2C(F)(F)F)c1`, for which the melting point was in the range of 168 to 171 °C.

In the case of `COc1cccc(C(=O)c2ccc(C(F)(F)F)cc2)c1`, the melting point was 69 °C.

`O=C(Nc1cccc2c3c(oc12)CCS(=O)C3)c1c(Cl)cccc1Cl` (configuration not stated) gave a melting point above 250 °C.

With `CC(C)Sc1ccc2c(c1)NC(=O)C2`, the melting point lay in the range of 99 to 102 °C.

In the case of `CC(C)c1nc(CO)n(CC2=CCC(=O)N=C2)c1Sc1cc(Cl)cc(Cl)c1`, the melting point is 220 °C.

As for `CCOc1ccc(S(=O)(=O)N2CCN(C)CC2)cc1C(=O)OC`, the melting point was 110 to 111 °C.

`Cc1ccc(CC(C(=O)C(Cc2ccc(C)cc2C)N2C(=O)c3ccccc3C2=O)N2C(=O)c3ccccc3C2=O)c(C)c1` (configuration not stated) gave a melting point of 112 °C.

In turn, `CCOC(=O)c1cn(-c2ccc(F)c(NC(=O)OC(C)(C)C)c2F)c2nc(Cl)c(F)cc2c1=O` came in with a melting point of 128 to 131 °C.

For `Clc1cccc(Oc2ccc3[nH]ccc3c2)n1`, the melting point fell in the range of 117 to 118 °C.

On to `CC(C)(C)OC(=O)N1CCC(n2cc(-c3ccc(Oc4ccccc4)cc3)c3c(N)ncnc32)C1` (configuration not stated), for which the melting point lay within 168 to 170 °C.

Compound `CCSc1cc(C)nc(SCC)c1NC(=O)CCCCCCSc1nc2ccccc2[nH]1` registered a melting point of 151 to 156 °C.

As for `CC1(c2ccc(Cl)c(Cl)c2)CN(C(=O)c2ccc(F)c3ccccc23)CCN1C(=O)CNC1CCN(Cc2ccccc2)CC1` (racemic), the melting point was 93 to 96 °C.

`COc1ccc(-n2c(S)nc3cc(OC)cc(OC)c3c2=O)cc1` showed a melting point of 322 to 326 °C.

Turning to `OCCOc1ccc(C=Cc2ncn(CC(O)(Cn3cncn3)c3ccc(F)cc3F)n2)cc1` (configuration not stated), the melting point was in the range of 152 to 155 °C.

Compound `C=C(C)COc1c(C)c(CCC(O)CC(=O)CC(=O)OCC)c2c(c1C)CC(C)(C)O2` (configuration not stated) displayed a melting point of 53.5 to 55 °C.

`COc1ccc(C2NC(=O)C2OC(C)=O)cc1` (configuration not stated) yielded a melting point of 110 to 111 °C.

The compound `CC1(C)CC(=O)C=C(c2ccc(OCC(=O)O)c(Cl)c2Cl)C1` returned a melting point of 178 to 180 °C.

On to `COC(=O)C(C)(C)Cc1c(SC(C)(C)C)c2cc(OCc3ccc4cc(F)ccc4n3)ccc2n1Cc1ccc(Cl)cc1`, for which the melting point fell in the range of 165 to 167 °C.

As for `COc1cc2c(cc1S(=O)(=O)Cl)CCN(C(C)=O)CC2`, the melting point lay within 153 to 160 °C.

For `O=c1ncc(Br)cn1CCCl`, the melting point lay within 185 to 186 °C.

On to `Cc1ccc(-c2ccc(S(=O)(=O)Nc3cc(C)no3)cc2)cc1`, for which the melting point was 194 to 198 °C.

Take `CCOC(=O)CNC(=O)c1cn2nc(NCCCN3CCC(OC(c4ccccc4)c4ccccc4)CC3)ccc2n1`: the melting point was 172 to 174 °C.

Consider `CCCCCCCCCCCC1=NCCN1`, for which the melting point turned out to be 82 °C.

Consider `Cc1cc(C2=C(/C=C/[C@H]3C[C@H](O)CC(=O)O3)C(C)(C)CC3(C2)SCCCS3)ccc1F` (relative stereo), for which the melting point was in the range of 136 to 138 °C.

Turning to `CCS(=O)(=O)Cc1cccc(-c2nc(=O)c3ccccc3s2)n1`, the melting point is 188 to 190 °C.

The compound `Cc1nc2c(cc1CO)CCCC2=Cc1ccccc1` showed a melting point of 102 to 103 °C.

The compound `c1cc2c3c(cccc3c1)C(NCCCCn1ccnc1)=N2` registered a melting point of 225 to 230 °C.

On to `CC(=O)Nc1c(C(=O)c2ccccn2)[nH]c2cc(Cl)ccc12`, for which the melting point was 211 to 212 °C.

Take `Cn1c(C(F)(F)F)c(C#N)c2cc(Cl)ccc21`: the melting point is 166 to 168 °C.

The compound `O=C(C=Cc1cccnc1)NCCCCN1CCN(C(c2ccccc2)c2ccccc2)CC1` returned a melting point of 143 to 144 °C.

`CN1CCC(OC(c2ccccc2)c2nc3cccc(O)c3[nH]2)CC1` (configuration not stated) came in with a melting point of 170 °C.

For `CN(CCCOC(=O)Cc1ccccc1Nc1c(Cl)cccc1Cl)CC1(SN=O)CCCCC1`, the melting point lay in the range of 58 to 60 °C.

`Cc1nccn1CCCCc1ccc(OCc2coc(/C=C/c3ccccc3)n2)cc1` came in with a melting point of 122 to 123 °C.

`Cc1cc(NS(=O)(=O)c2ccc(NCNc3ccc(S(=O)(=O)Nc4cc(C)on4)cc3)cc2)no1` yielded a melting point of 180 to 188 °C.

As to `CC(C#N)c1ccc(O)c([N+](=O)[O-])c1` (configuration not stated), the melting point lay in the range of 78 to 81 °C.

As for `N#CC1=C(C2CCN(C(=O)c3ccccc3)CC2)Nc2n[nH]cc2C1c1cccc2nonc12` (configuration not stated), the melting point was 228 °C.

On to `O=S(=O)(c1cccc(F)c1)c1ccc2[nH]c3c(c2c1)CCNCC3`, for which the melting point lay within 153 to 156 °C.

With `COc1cccc(N(C)c2nc(NC(=O)C(C)(C)C)nc3[nH]c4ccccc4c23)c1`, the melting point fell in the range of 248 to 249 °C.

As to `O=C(Cl)C=C(c1ccccc1)c1ccc([N+](=O)[O-])cc1`, the melting point was in the range of 117 to 120 °C.

`Cc1cc(N)nc(CCc2nc3cc(-c4ccc(S(=O)(=O)N5CCCC5)cc4)cnc3[nH]2)c1` came in with a melting point of 171 °C.

The compound `CCC1(C)C(=O)NN=C1c1ccc(-n2ccnc2)cc1` (configuration not stated) registered a melting point of 86 to 88 °C.

The compound `CCCCCS(=O)(=O)NC/C=C/c1ccc(OCCOC)cc1Oc1ncc(C(F)(F)F)cc1Cl` displayed a melting point of 106 °C.

In the case of `O=C1CC2(CC2)CC(=O)O1`, the melting point was 102 °C.

`CC(C)(C)OC(=O)N(Cc1ccc(C2CCCCC2)cc1)c1nc(N2CCOCC2)c2ncn(CC(=O)O)c2n1` registered a melting point of 166 to 167 °C.

In turn, `CC(=NOCc1ccc(OCc2nc(-c3ccccc3)oc2C)cc1)C(=O)O` yielded a melting point of 147 to 148 °C.

With `CC(O)Cn1cnc2c(=O)[nH]cnc21` (configuration not stated), the melting point lay in the range of 244 to 250 °C.

Take `CN(CC(N)=O)C(=O)CCl`: the melting point was in the range of 85 to 86 °C.

On to `COc1cccc(-c2noc3ccsc23)c1`, for which the melting point is 51 to 52 °C.

Regarding `N#Cc1ccc(-c2ccc(OC3SCC(O)C(O)C3O)cn2)cn1` (configuration not stated), the melting point came to 167 °C.

The compound `COC(=O)c1ncc(C(=O)NS(=O)(=O)c2ccccc2)cc1OC` displayed a melting point of 160 to 163 °C.

As to `Nc1nc(/C=C/c2ccc([N+](=O)[O-])cc2)cs1`, the melting point was found to be 278 °C.

Consider `CCN(CC)c1ccc(C2(c3ccc(N(CC)CC)cc3N(CC)CC)OC(=O)c3ccccc32)c(C)c1` (configuration not stated), for which the melting point lay within 149 to 151 °C.
